5 molecules from patent US20100239556A1, “PROMOTING ECM PRODUCTION BY FIBROBLAST CELLS AND/OR PROMOTING MIGRATION OF FIBROBLAST CELLS IN A BIOLOGICAL SYSTEM” (TGR BioScience Pty Ltd., priority 2006, published 2010) can be followed below.

The test system of assay [1] is human foreskin fibroblast cells (HFF cells). As to the kind of experiment: Repeated stimulation of collagen I production. In kind it is cell-based. As to conditions: for total collagen I, stimulated twice versus once within a seven day culture period: day 0-2 plus day 2-7 versus day 0-7; for collagen I production after a second stimulation relative to the first stimulation: restimulated after 48 hours, further 5 days. As to the method: Experiments were performed to ensure human fibroblast cells could be stimulated to increase ECM protein production by proteins having peroxidase activity after more than one application of the proteins having peroxidase activity. The capacity to respond repeatedly to the proteins having peroxidase activity provides important utility for the generation of ECM in vitro, particularly given that spent culture media needs to be replaced on a regular basis to maintain the viability of the cells. These experiments were performed using human foreskin fibroblast cells (HFF cells) seeded into 96 well plates at a density of 1.2×10^4 cells/well and cultured for one week in 10% fetal bovine serum/Dulbecco's minimum essential media (10% FBS/DMEM) at 37° C. and 5% CO2 (as described in Example 3). The confluent cells were then starved overnight in serum free DMEM and triplicate wells treated for six hours with MP, ARP and LP as representative proteins having peroxidase activity or the control agents transforming growth factor β2 (TGFβ2; R&D Systems) and 10% FBS (JRH BioSciences). After 48 hours, the conditioned media was collected for measurement of collagen I (as a representative ECM protein) and the cells either restimulated for six hours with fresh solutions containing proteins having peroxidase activity or control agents or the media was replaced with fresh serum free DMEM. The cells were cultured for a further 5 days after which the media was collected a second time for the measurement of collagen I. Media was also collected from replicate wells treated at the start of the experiment and left for 7 days (total culture period) for comparison.

For another assay, the system named is dermis. Kind of assay: Cellular integration and ECM production of dermal filler substances implanted intradermally. In kind it is in vivo, Sprague-Dawley rats. As to conditions: one month after implantation; for cellular integration and ECM production within Hylaform: LP 1 mg/ml or HRP 500 μg/ml added to Hylaform, or Hylaform alone; for cellular integration and ECM production within Restylane: LP 1 mg/ml or HRP 500 μg/ml added to Restylane, or Restylane alone. How it is done: The ability of agents with peroxidase activity to stimulate the production of endogenous ECM within, or about, a substrate when implanted in vivo was assessed. Substrates used for these experiments were two hyaluronic acid based dermal filler substances; Hylaform® Plus containing 5.5 mg/ml hylan B gel and Restylane® containing 20 mg/ml stabilised hyaluronic acid, and Sculptra® containing poly-L-lactic acid. The two pre-prepared “ready to use” hyaluronic acid filler substances were diluted 1:2 with 1 mg/ml HRP to give a final concentration of 500 μg/ml HRP whilst Sculptra powder was dissolved in a lmg/ml LP solution to final concentrations of 25 and 50 mg/ml poly-L-lactic acid. As described in example 8, female Sprague-Dawley rats were lightly anaesthetized and a volume of approximately 50 μl of the filler substance+protein with peroxidase activity or filler substance alone were injected intradermally into different sites on their dorsum. The rats were returned to their cage and left alone for 7 days or 1 month after which they were killed by CO2 asphyxiation and the skin at the injection sites collected for histological assessment as described in example 8, or immunohistochemical staining for collagen I using the method outlined previously for the SMA immunohistochemistry (in Example 3) with the variation that 5 μg/ml rabbit anti Collagen-I (Rocklands Immunochemicals) was used as the primary antibody.

Assay [2] has as its system adult primary fibroblast cells and HFF cells. As to the kind of experiment: Organisation of collagen fibers on coverslips (collagen I immunohistochemistry). It counts as cell-based, human. As to conditions: treated up to 7 days. As to the method: ECM, rather than disorganized ECM which would increase the risk of scar formation within the dermis and contribute to the generation of structurally and functionally impaired replacement tissue, additional experiments were performed to visualize the collagen fibers formed by fibroblast cells stimulated with proteins having peroxidase activity. These experiments involved growing adult primary fibroblast cells and HFF cells on microscope slide coverslips placed into each well of six well tissue culture plates. Each well containing a coverslip was seeded with 1.5×10^5 cells and after one week of culture, the cells were treated with a range of proteins having peroxidase activity for up to 7 days. At the end of the experiment, the cell media was removed and the cells and cell-associated ECM fixed by the addition of 10% formalin. The coverslips were removed from the tissue culture plate and stained immunohistochemically for collagen I using the method outlined in Example 3 for the SMA immunohistochemistry with the variation that 5 μg/ml rabbit anti Collagen-I (Rocklands Immunochemicals) was used as the primary antibody.

The subject of assay [3] is primary-adult fibroblast cells. Kind of assay: Fibroblast infiltration into INTEGRA scaffold (SMA immunohistochemistry). It counts as cell-based, human. From the text:
INTEGRA® was cut into lcm x lcm pieces using a sterile scalpel, the pieces transferred to a petri dish using sterile forceps and washed four times each with PBS followed by serum-free DMEM, to remove the alcohol storage medium and to equilibrate the porous scaffold for exposure to cells. After the last wash, the INTEGRA® pieces were transferred to the wells of a 12 well tissue culture plate (collagen layer facing up) immersed in media containing proteins having peroxidase activity. This “pre-treatment” of the INTEGRA® with proteins having peroxidase activity was performed for up to 16 hours at 37° C. in a CO2 incubator. After the “pre-incubation” period, the media was replaced with fresh DMEM supplemented with 10% FBS (ie normal growth media as the control) containing 5×10^5 human fibroblast cells plus or minus proteins having peroxidase activity. After allowing 24 hours for the fibroblast cells to attach to the collagen matrix of the INTEGRA® scaffold, the INTEGRA® pieces were transferred to fresh 12 well plates to ensure any cells not attached to the matrix surface were removed. Fresh media containing proteins with peroxidase activity were added to the wells and the INTEGRA® pieces incubated for up to 14 days (“post-treatment” period) with the media changed every 7 days as necessary. […]

The next assay relates to adult fibroblast cells. Kind of assay: ECM production within INTEGRA scaffold (collagen I immunohistochemistry). It counts as cell-based, human. From the text: INTEGRA® was cut into lcm x lcm pieces using a sterile scalpel, the pieces transferred to a petri dish using sterile forceps and washed four times each with PBS followed by serum-free DMEM, to remove the alcohol storage medium and to equilibrate the porous scaffold for exposure to cells. After the last wash, the INTEGRA® pieces were transferred to the wells of a 12 well tissue culture plate (collagen layer facing up) immersed in media containing proteins having peroxidase activity. This “pre-treatment” of the INTEGRA® with proteins having peroxidase activity was performed for up to 16 hours at 37° C. in a CO2 incubator. After the “pre-incubation” period, the media was replaced with fresh DMEM supplemented with 10% FBS (ie normal growth media as the control) containing 5×10^5 human fibroblast cells plus or minus proteins having peroxidase activity. After allowing 24 hours for the fibroblast cells to attach to the collagen matrix of the INTEGRA® scaffold, the INTEGRA® pieces were transferred to fresh 12 well plates to ensure any cells not attached to the matrix surface were removed. Fresh media containing proteins with peroxidase activity were added to the wells and the INTEGRA® pieces incubated for up to 14 days (“post-treatment” period) with the media changed every 7 days as necessary. At the end of the experiment the INTEGRA® pieces were harvested and fixed in 10% buffered formaldehyde before they were processed, embedded in paraffin wax, cut in cross-section and placed onto microscope slides for histological and immunohistochemical analysis.
To confirm proteins having peroxidase activity promote the generation of a three-dimensional human tissue by stimulating the production of collagen and other ECM components to fill the interstices of a three-dimensional framework or scaffold, INTEGRA® pieces collected from the experiments described in Example 3 were analysed for the production of Collagen I (as a representative ECM protein) using immunohistochemistry. […]

Where [4] appears, read: 25 μg/ml before and after addition of cells, 7 days, versus 7 and 14 day controls.

As to Arthromyces ramosus peroxidase [ARP], in assay [1], the “total collagen I, stimulated twice versus once within a seven day culture period” value is given as “markedly greater total collagen I levels” and the “collagen I production after a second stimulation relative to the first stimulation” value is recorded as “produced a greater response when stimulated a second time”.

As to lactoperoxidase [LP], in assay [1], the “total collagen I, stimulated twice versus once within a seven day culture period” value was “markedly greater total collagen I levels” and the “collagen I production after a second stimulation relative to the first stimulation” value is “at least equivalent to that obtained with the first stimulation”. Also, in the assay on dermis, the “cellular integration and ECM production within Hylaform” value is “surprising increase in cellular infiltration and integration and cell-associated ECM production”; the “cellular integration and ECM production within Restylane” value was “surprising increase in cellular infiltration and integration and cell-associated ECM production”.

microperoxidase [MP]: in assay [1], the “total collagen I, stimulated twice versus once within a seven day culture period” value is given as “responded in a similar way to cells treated with TGFβ2” and the “collagen I production after a second stimulation relative to the first stimulation” value is on record as “at least equivalent to that obtained with the first stimulation”. Also, the “collagen fibers in the cell-associated ECM” value in assay [2] is “collagen was not the major ECM protein deposited”.

In the case of soy bean peroxidase [SBP], the “cells within the interstices of the INTEGRA scaffold” value in assay [3] (setting [4]) is given as “many more cells were evident within the interstices of the scaffold”. Besides, the “cell-associated ECM within the interstices of the scaffold” value in the assay on adult fibroblast cells (setting [4]) is given as “much more cell-associated ECM was evident”.

B1: horse radish peroxidase (protein, UniProt P00433 31-338, looked up)
Peroxidase C1A: QLTPTFYDNSCPNVSNIVRDTIVNELRSDPRIAASILRLHFHDCFVNGCDASILLDNTTSFRTEKDAFGNANSARGFPVIDRMKAAVESACPRTVSCADLLTIAAQQSVTLAGGPSWRVPLGRRDSLQAFLDLANANLPAPFFTLPQLKDSFRNVGLNRSSDLVALSGGHTFGKNQCRFIMDRLYNFSNTGLPDPTLNTTYLQTLRGLCPLNGNLSALVDFDLRTPTIFDNKYYVNLEEQKGLIQSDQELFSSPNATDTIPLVRSFANSTQTFFNAFVEAMDRMGNITPLTGTQGQIRLNCRVVNSNS
Regarding B1, the “cells within the INTEGRA scaffold” value in assay [3] (25 μg/ml, 14 days of treatment) is “even greater number of cells evident within the scaffold”. Moreover, in the assay with dermis, the “cellular integration and ECM production within Hylaform” value was “Increased cellular integration and ECM production”; the “cellular integration and ECM production within Restylane” value was “Increased cellular integration and ECM production”. Moreover, the “collagen fibers in the cell-associated ECM” value in assay [2] is given as “strongly stained, parallel collagen fibers”. Moreover, the “ECM production and integration” value in the assay on adult fibroblast cells (25 μg/ml, 14 days, versus 14 days standard conditions) was “much greater ECM production and integration”.
